This is an account of results in patent US20080188528A1, “Modulators of C3a receptor and methods of use thereof” (priority 2006, published 2008).

The target of this assay is T1, human C3a receptor (C3aR) (Homo sapiens, UniProt Q16581).
T1 construct: expressed in transfected cells
T1 sequence (Q16581 1-482): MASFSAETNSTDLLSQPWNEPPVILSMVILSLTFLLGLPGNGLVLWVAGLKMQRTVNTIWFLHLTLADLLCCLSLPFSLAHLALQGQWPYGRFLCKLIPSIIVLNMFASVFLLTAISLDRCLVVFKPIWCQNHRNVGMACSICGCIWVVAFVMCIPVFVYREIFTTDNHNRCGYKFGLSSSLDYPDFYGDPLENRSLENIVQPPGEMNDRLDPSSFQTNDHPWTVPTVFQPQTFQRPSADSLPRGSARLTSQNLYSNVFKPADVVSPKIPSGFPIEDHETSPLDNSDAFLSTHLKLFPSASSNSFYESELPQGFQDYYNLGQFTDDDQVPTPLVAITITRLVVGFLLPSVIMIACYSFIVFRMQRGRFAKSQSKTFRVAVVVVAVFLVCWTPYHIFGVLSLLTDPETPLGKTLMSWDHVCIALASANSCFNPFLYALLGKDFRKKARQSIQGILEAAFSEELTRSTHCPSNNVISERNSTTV
Kind of assay: Inhibition of human [125I]-C3a binding to human C3a receptor (SPA, membranes of HEK293 cells expressing recombinant C3aR). The conditions noted are these: 0.1 nM [125I]-C3a, 3 hours at room temperature. The procedure:
Inhibition of human [^125I]-C3a binding to human C3a receptor
Binding of human [^125I]-C3a to human C3a receptor (C3aR) was done using cell membranes from HEK293 cells stably expressing recombinant C3aR, in a homogeneous scintillation proximity assay (SPA). The C3aR cell membranes were pre-coupled over-night at 4° C. to WGA-PVT SPA beads (Amersham) at a ratio of 10 μg cell membrane to 0.5 mg beads/assay. Assay was performed in 96-well microtiter Optiplates (Packard) by mixing coupled beads and 0.1 nM [^125I]-C3a (2200 Ci/mmol, Perkin Elmer Life Sciences), in a total volume of […] binding buffer (20 mM HEPES, pH 7.4, 125 mM NaCl, 5 mM KCl, 1 mM CaCl2, 1 mM MgCl2, 0.25% BSA, 0.2% CHAPS). Test compounds were diluted in DMSO and were tested for their inhibitory potential in the assay (final concentration≦1% DMSO). Incubation was done for 3 hours at room temperature followed by reading in a TopCount scintillation microplate reader. Non-specific binding was determined by adding 1 μM unlabeled C3a (Calbiochem) to the assay mixture. Calculation of the IC50 was done as above using a nonlinear least square fitting program, with Graphpad Prism.

One may read the IC50 as the midpoint of a concentration-inhibition curve.

Structures can show the parent of a compound that is named as a salt.

Take `N=C(N)NCCC[C@H](NC(=O)c1cccn(Cc2cccc(Cc3ccccc3)c2)c1=O)C(=O)O` [Compound 24, (2S)-2-({[1-(3-benzylbenzyl)-2-oxo-1,2-dihydropyridin-3-yl]carbonyl}amino)-5-carbamimidamidopentanoic acid•TFA]: where the note is “Table 1”, the half-maximal inhibitory concentration (IC50) is 50 to 500 nM. As to `N=C(N)NCCC[C@H](NC(=O)c1cccn(Cc2ccc(Cc3ccccc3)cc2)c1=O)C(=O)O` [Compound 25, (2S)-2-({[1-(4-benzylbenzyl)-2-oxo-1,2-dihydropyridin-3-yl]carbonyl}amino)-5-carbamimidamidopentanoic acid•TFA], the half-maximal inhibitory concentration (IC50) (Table 1) was 50 to 500 nM. Consider `N=C(N)NCCC[C@H](NC(=O)c1cccn(Cc2ccccc2-c2cccc3ccccc23)c1=O)C(=O)O` [Compound 26, (2S)-5-carbamimidamido-2-[({1-[2-(1-naphthyl)benzyl]-2-oxo-1,2-dihydropyridin-3-yl}carbonyl)amino]pentanoic acid•TFA], for which the IC50 (Table 1) was less than 50 nM. Same read-out and setting: next, `N=C(N)NCCC[C@H](NC(=O)c1cccn(Cc2ccccc2-c2ccc3ccccc3c2)c1=O)C(=O)O` [Compound 27, (2S)-5-carbamimidamido-2-[({1-[2-(2-naphthyl)benzyl]-2-oxo-1,2-dihydropyridin-3-yl}carbonyl)amino]pentanoic acid•TFA]: less than 50 nM; `CC(C)c1ccccc1-c1ccccc1Cn1cccc(C(=O)N[C@@H](CCCNC(=N)N)C(=O)O)c1=O` [Compound 28, (2S)-5-carbamimidamido-2-[({1-[(2′-isopropylbiphenyl-2-yl)methyl]-2-oxo-1,2-dihydropyridin-3-yl}carbonyl)amino]pentanoic acid•TFA]: less than 50 nM. Still for that read-out and setting: the figure for `CC(C)c1cccc(-c2ccccc2Cn2cccc(C(=O)N[C@@H](CCCNC(=N)N)C(=O)O)c2=O)c1` [Compound 29, (2S)-5-carbamimidamido-2-[({1-[(3′-isopropylbiphenyl-2-yl)methyl]-2-oxo-1,2-dihydropyridin-3-yl}carbonyl)amino]pentanoic acid•TFA] is less than 50 nM; for `CC(C)c1ccc(-c2ccccc2Cn2cccc(C(=O)N[C@@H](CCCNC(=N)N)C(=O)O)c2=O)cc1` [Compound 30, (2S)-5-carbamimidamido-2-[({1-[(4′-isopropylbiphenyl-2-yl)methyl]-2-oxo-1,2-dihydropyridin-3-yl}carbonyl)amino]pentanoic acid•TFA] it is 50 to 500 nM.

On to `N=C(N)NCCC[C@H](NC(=O)c1cccn(Cc2ccccc2-c2ccc(F)cc2)c1=O)C(=O)O` [Compound 31, (2S)-5-carbamimidamido-2-[({1-[(4′-fluorobiphenyl-2-yl)methyl]-2-oxo-1,2-dihydropyridin-3-yl}carbonyl)amino]pentanoic acid•TFA], for which the IC50 (Table 1) is less than 50 nM. The same measure, in the same setting: next, `N=C(N)NCCC[C@H](NC(=O)c1cccn(-c2ccc3ccccc3c2)c1=O)C(=O)O` [Compound 32, (2S)-5-carbamimidamido-2-({[1-(2-naphthyl)-2-oxo-1,2-dihydropyridin-3-yl]carbonyl}amino)pentanoic acid•TFA]: 50 to 500 nM. Take `N=C(N)NCCC[C@H](NC(=O)c1cccn(-c2ccccc2)c1=O)C(=O)O` [Compound 33, (2S)-5-carbamimidamido-2-{[(2-oxo-1-phenyl-1,2-dihydropyridin-3-yl)carbonyl]amino}pentanoic acid•TFA]: the 50% inhibitory concentration (IC50) (Table 1) was in the range of 500 to 20000 nM. `N=C(N)NCCC[C@H](NC(=O)c1cccn(-c2ccc(-c3ccccc3)cc2)c1=O)C(=O)O` [Compound 34, (2S)-2-{[(1-biphenyl-4-yl-2-oxo-1,2-dihydropyridin-3-yl)carbonyl]amino}-5-carbamimidamidopentanoic acid•TFA]: the half-inhibitory concentration (IC50) (Table 1) was in the range of 500 to 20000 nM. As for `Cc1ccc(C(=O)N[C@@H](CCCNC(=N)N)C(=O)O)c(=O)n1Cc1ccccc1` [Compound 35, (2S)-2-{[(1-benzyl-6-methyl-2-oxo-1,2-dihydropyridin-3-yl)carbonyl]amino}-5-carbamimidamidopentanoic acid•TFA], where the note is “Table 1”, the IC50 lay within 50 to 500 nM. Turning to `N=C(N)NCCC[C@H](NC(=O)c1ccc(-c2ccccc2)n(Cc2ccccc2)c1=O)C(=O)O` [Compound 36, (2S)-2-{[(1-benzyl-2-oxo-6-phenyl-1,2-dihydropyridin-3-yl)carbonyl]amino}-5-carbamimidamidopentanoic acid•TFA], the IC50 (Table 1) is 500 to 20000 nM. For `N=C(N)NCCC[C@H](NC(=O)c1cccn(CC(=O)N(c2ccccc2)c2ccccc2)c1=O)C(=O)O` [Compound 37, (2S)-5-carbamimidamido-2-[({1-[2-(diphenylamino)-2-oxoethyl]-2-oxo-1,2-dihydropyridin-3-yl}carbonyl)amino]pentanoic acid•TFA], the 50% inhibitory concentration (IC50) (Table 1) was 50 to 500 nM. On the same count and under the same terms, next, `N=C(N)NCCC[C@H](NC(=O)c1cccn(Cc2cccc(Cl)c2)c1=O)C(=O)O` [Compound 38, (2S)-5-carbamimidamido-2-({[1-(3-chlorobenzyl)-2-oxo-1,2-dihydropyridin-3-yl]carbonyl}amino)pentanoic acid•TFA]: less than 50 nM.

As to `N=C(N)NCCC[C@H](NC(=O)c1cccn(Cc2cccc(F)c2)c1=O)C(=O)O` [Compound 39, (2S)-5-carbamimidamido-2-({[1-(3-fluorobenzyl)-2-oxo-1,2-dihydropyridin-3-yl]carbonyl}amino)pentanoic acid•TFA], the IC50 (Table 1) was less than 50 nM.

On to `N=C(N)NCCC[C@H](NC(=O)c1cccn(C(c2ccccc2)c2ccccc2)c1=O)C(=O)O` [Compound 40, (2S)-5-carbamimidamido-2-({[1-(diphenylmethyl)-2-oxo-1,2-dihydropyridin-3-yl]carbonyl}amino)pentanoic acid•TFA], for which the half-maximal inhibitory concentration (IC50) (Table 2) is less than 50 nM. In the case of `N=C(N)NCCC[C@@H](NC(=O)c1cccn(C(c2ccccc2)c2ccccc2)c1=O)C(=O)O` [Compound 41, (2R)-5-carbamimidamido-2-({[1-(diphenylmethyl)-2-oxo-1,2-dihydropyridin-3-yl]carbonyl}amino)pentanoic acid•TFA], where the note is “Table 2”, the IC50 was less than 50 nM.

For the molecule `Cc1ccccc1C(c1ccccc1C)n1cccc(C(=O)N[C@@H](CCCNC(=N)N)C(=O)O)c1=O` [Compound 42, (2S)-2-[({1-[bis(2-methylphenyl)methyl]-2-oxo-1,2-dihydropyridin-3-yl}carbonyl)amino]-5-carbamimidamidopentanoic acid•TFA], under “Table 2”, the IC50 is less than 50 nM. Consider `Cc1cccc(C(c2cccc(C)c2)n2cccc(C(=O)N[C@@H](CCCNC(=N)N)C(=O)O)c2=O)c1` [Compound 43, (2S)-2-[({1-[bis(3-methylphenyl)methyl]-2-oxo-1,2-dihydropyridin-3-yl}carbonyl)amino]-5-carbamimidamidopentanoic acid], for which the IC50 (Table 2) is less than 50 nM. Consider `N=C(N)NCCC[C@H](NC(=O)c1cccn(C(c2ccc(F)cc2)c2ccc(F)cc2)c1=O)C(=O)O` [Compound 44, (2S)-2-[({1-[bis(4-fluorophenyl)methyl]-2-oxo-1,2-dihydropyridin-3-yl}carbonyl)amino]-5-carbamimidamidopentanoic acid•TFA], for which, for the setting “Table 2”, the 50% inhibitory concentration (IC50) is less than 50 nM. Still for that read-out and setting: next, `N=C(N)NCCC[C@H](NC(=O)c1cccn(C(c2cccc(F)c2)c2cccc(F)c2)c1=O)C(=O)O` [Compound 45, (2S)-2-[({1-[bis(3-fluorophenyl)methyl]-2-oxo-1,2-dihydropyridin-3-yl}carbonyl)amino]-5-carbamimidamidopentanoic acid•TFA]: less than 50 nM.
